From a melting point compilation (Tetko et al.; mined from patent text by program, amines drawn as free bases though some values may be those of a salt)

Compound	melting point
CCN(CC)CCOc1ccc(Nc2ncc3c(n2)N(C)C(=O)N(c2cccc(Br)c2)C3)cc1	150 °C
O=C(O)c1cc2cc3[nH]c(=O)oc3cc2[nH]1	288 to 290 °C
O=Cc1ccc2c(ccc3c4ccccc4ccc23)c1	215 to 216 °C
Cc1cccc(-c2nc3ccc(O)cc3n2Cc2ccccc2Br)c1	218 °C
CCn1c(=O)c(C(=O)O)nc2ccc(F)cc21	162 to 164 °C
Cc1cccc2c(Cl)nc(Cl)nc12	180 to 230 °C
CCCn1nc2c(N)nc3ccccc3c2c1CC	219 to 220 °C
Cc1nn2c(C(F)(F)F)cc(-c3ccc(F)c(Cl)c3)nc2c1C#N	196 °C
FC(F)(F)Oc1ccc(-c2cncc(Cl)n2)cc1	58 to 60 °C
COC(=O)Nc1nc2ccc(Sc3ccccc3)cn2c1CN1CCOCC1	158 to 182 °C
CC1CCc2c(C#N)c(F)cc3c(=O)c(C(=O)O)cn1c23 (stereo not given)	300 °C
CC=Cc1cccc2c(=O)c(C)c(NC(=O)OC(C)(C)C)oc12	200 to 203 °C
O=C1C=CC(Br)N(CCl)N1 (stereo not given)	90 °C
O=C(N[C@@H](CS(=O)(=O)c1ccc(Oc2ccccc2)cc1)C(=O)NO)OCc1ccccc1	195 to 202 °C
OC1(CNc2c(Br)cnc3cc(Cl)ccc23)CCCCC1	151 to 154 °C
CC(=O)C=Cc1ccc2c(c1)Cc1ccccc1-2	146 to 148 °C
COC(=O)c1nc(CCl)n(-c2ccc(Cl)cc2C(=O)c2ccccc2Cl)n1	130 to 132 °C
CCOC(=O)C(=CN(CC)c1cccs1)C(=O)OCC	41 to 42 °C
CC(=O)S[C@H]1NC(=O)[C@H]1NC(=O)Cc1ccccc1	110 to 111 °C
COC(=O)C(Cc1ccccc1)NC(=O)c1cc2cc(Cl)ccc2[nH]1 (stereo not given)	156 to 157 °C
O=C(/C=C/c1ccc2ccccc2c1)Nc1ccccc1-c1nnn[nH]1	187 to 191 °C
CC(C)CCCC(C)C1CCC2C3CC=C4CC(N=[N+]=[N-])CCC4(C)C3CCC12C (stereo not given)	84 to 86 °C
CCc1nn(CCO)c(CC)c1Oc1cc(C#N)cc(S(C)(=O)=O)c1	133 °C

Compound	melting point
Cc1cc(-c2ccccc2)n2nc(N)nc2n1	246 to 250 °C
O=C1CCC(O)(c2ccc(F)cc2)CC1	108 to 114 °C
CCc1c(O)n[nH]c1C	232 to 234 °C
CC(=O)C(=NNc1ccc(Cl)cc1)Sc1ccc(Cl)cc1	164 to 167 °C
COC(=O)C1Cc2c([nH]c3ccccc23)CN1C(=O)c1ccc(Cl)cc1 (stereo not given)	243 to 244 °C
CNC(=O)C(=NOC)c1ccccc1COc1ncc(C(=O)OC(C)C)cc1C	101 to 102 °C
O=c1c2ccccc2nnn1CCCN1CCC(c2c[nH]c3ccccc23)CC1	60 °C
CC1(C)C2CC=C(CCn3c(=O)nc(-c4ccccc4)c4cc([N+](=O)[O-])ccc43)C1C2 (stereo not given)	80 to 81 °C
N#Cc1ccccc1-c1ccc(C(F)(F)F)c(Cl)c1	138 to 140 °C
Cc1c(C)c(O)c([N+](=O)[O-])c(C)c1O	105 to 106 °C
Nc1cc2c(cc1Oc1ccccc1)C(=O)CCO2	154 to 155 °C
N#Cc1cc(N2CCC(c3cc(Cl)cc(Cl)c3)(C(F)(F)F)C2)ccc1F (stereo not given)	184 to 186 °C
COc1cccc(C(=O)c2ccc(OC)c(C(=O)O)c2)c1	132 °C
O=C(O)[C@H](Cc1ccc(C(F)(F)F)cc1)[C@@H](O)c1cccc(F)c1 (racemic)	128 to 129 °C
Cc1cc(C)n(C)c1C(=O)C(C#N)C(=O)Nc1ccccc1 (stereo not given)	106 to 107 °C
CCc1ccc2cc(C)c(-n3cncn3)nc2c1	72 to 73 °C
CC12CCC(C(=NO)C1=NN)C(C)(C)O2 (stereo not given)	138 to 142 °C
CC(C)(CO)Cc1ccc(CC(C)(C)CO)cc1	104 to 105 °C
Cc1ccccc1NC(=O)/C=C/C=C/CC1CCc2c(cccc2C(F)(F)F)C1 (stereo not given)	171 °C
CCCNC(=O)c1nc(-c2ccccc2)c(-c2ccc(=O)n(CCC)n2)s1	121 to 122 °C
CC(=N)Nc1ccc(CCc2nc(NC(C)=O)sc2Cc2ccc(S(C)(=O)=O)cc2)cc1	81.5 to 83 °C
CCCCn1nc2c(N)nc3c(c2c1CCS(=O)(=O)CCC)CCCC3	173 to 175 °C
CC(=O)c1cc(C)c2c(n1)-c1ccccc1C2=O	170 to 172 °C

Compound	melting point
COc1cccc(NC(=O)c2cc(C)sc2Br)c1O	169 to 172 °C
C=CCCO[C@@H](Cc1ccc(OCCc2nc(-c3ccc(C(C)C)cc3)oc2C)c2ccsc12)C(=O)O	124 to 126 °C
Cc1cc(C(N)=O)cc([N+](=O)[O-])n1	227 to 228 °C
O=C(Cn1cc[nH]c(=O)c1=O)OC(c1ccccc1)c1ccccc1	97 to 98 °C
C#CC(O)(C(Oc1ccc(F)cc1)n1cncn1)C(C)(C)C (stereo not given)	134 to 135 °C
CCOc1ccc(-c2nc3n(c2-c2ccc(OCC)cc2)CCS3)cc1	214 to 215 °C
CCCCOc1c(CNC(=O)OCC2c3ccccc3-c3ccccc32)n(CC(C)C)c(=O)c2ccc(-c3nc(C(=O)OCC)cs3)cc12	203 to 204 °C
Clc1cccc(N2CCN(CCCCOc3ccc4scnc4c3)CC2)c1Cl	93 to 94.5 °C
Nc1ccc2ccc(-c3ccc(Cl)c(Cl)c3)nc2n1	210 °C
OCCc1nccn1CCCCc1ccc(OCc2coc(/C=C/c3ccc(Br)cc3)n2)cc1	149 to 150 °C
CC(=O)Nc1nc2c(Oc3cc(-c4ccc(C(F)(F)F)cc4NCC4CCCCC4)ncn3)cccc2s1	232 to 234 °C
CS(=O)(=O)c1c(C(=O)O)ccc(Cl)c1F	208 to 209 °C
O=C(NCc1ccc(Cl)cc1)c1cnc2cccc(O)c2c1O	235 to 238 °C
CSCCC(=O)N(C)c1sc(-c2cncc(F)c2)nc1C#N	97 to 98 °C
O=C(Nc1ccc(F)cc1)N[C@H]1CCCN(C(=O)c2ccc(F)cc2)C1	228 to 231 °C
CNC(=O)COC1C(O)C(CO)OC(Oc2ccc(N)cc2)C1O (stereo not given)	239 °C
O=C1NCC(c2cccs2)SCC1N1C(=O)c2ccccc2C1=O (stereo not given)	183 to 184 °C
O=c1ccc(-c2cc(F)cc(F)c2)n[nH]1	230 °C
O=C(O)CCCc1cc2nc(Cl)ccc2n1S(=O)(=O)c1c(F)cc(F)cc1F	135 to 150 °C
COc1nnc2n1C=Cc1cc(Cl)ccc1C2	177 to 178 °C
CN1C(=O)C2C3Oc4ccccc4OC3=C3C(Oc4cccnc4N3C(=O)Oc3ccccc3)C2C1=O (stereo not given)	245 °C

Next, values leading:

melting point	Compound
95 to 97 °C	CS(=O)CC(=O)c1cccn1Cc1ccccc1 (stereo not given)
193 to 195 °C	C#CCOC(=O)c1cc(-n2c(=O)c3c(n(C)c2=O)CCC3)c(F)cc1Cl
72 to 74 °C	CCCCCCCCOC(=O)COc1cc(F)ccc1C(=O)NCc1cccc([N+](=O)[O-])c1
152 °C	COCc1cc2c(NC(=S)N3Cc4ccccc4CC3CCO)cccc2cn1 (racemic)
198 °C	C=CCS(=O)(=O)c1ccc(N2CC=C(c3ccc(Cl)c(Cl)c3)N2)cc1
132 °C	COC(=O)C(F)(F)CC(C)C1CCC2C3CC=C4CC(OC(C)=O)CCC4(C)C3CCC12C (stereo not given)
215 to 217 °C	O=C(O)c1csc(Cn2cc(C3c4ccc(Br)cc4C=Cc4cc(Br)ccc43)c(=S)[nH]c2=O)n1
158 to 160 °C	Cc1cc(C(=O)C(C#N)C(=O)Nc2ccccc2)c(C)n1C (stereo not given)
94 to 95 °C	COc1cccc(C(CNC(=O)Cc2c(Cl)cncc2Cl)C(C)C)c1 (stereo not given)
159 to 160 °C	COc1ccc(-c2ccc(C(=O)NCCOc3ccc(CC(Oc4ccc(C(C)C)cc4)C(=O)O)cc3)cc2)cc1 (stereo not given)
154 to 155 °C	CCOC(=O)c1[nH]c(CC)nc1C1CC1
64 to 66 °C	CS(=O)(=O)OCCC1c2ccccc2COc2ccccc21 (stereo not given)
201 to 203 °C	COc1cc2c(Nc3ccc(C)c(OC(C)=O)c3)ncnc2cc1OCc1ccsc1
115 to 120 °C	CC(=O)Oc1c(C)c(C)c2c(c1C)CCC(O)O2 (stereo not given)
78 °C	CSC(=C[N+](=O)[O-])NCCCCc1ccccn1
272 to 274 °C	O=C1CCC(N2Cc3c(OCc4cccc(Cl)c4Cl)cccc3C2=O)C(=O)N1 (stereo not given)
157 to 158 °C	CCOC(=O)c1sc(-c2ccc3c(=O)n(CC(C)C)c(CNC(=O)OCC4c5ccccc5-c5ccccc54)c(-c4ccccc4)c3c2)nc1C

melting point	Compound
161 to 165 °C	CC(C)(C)c1cc(CC(Cc2cc(C(C)(C)C)c(O)c(C(C)(C)C)c2)[N+](=O)[O-])cc(C(C)(C)C)c1O
114 °C	CC(C)On1nnc2ccc(Cn3ccnc3)cc21
103 to 104 °C	COC(=O)C(c1ccc(Cl)cc1)c1ncc(C(F)(F)F)cc1Cl (stereo not given)
106 to 107 °C	CCOC(=O)c1cc(=O)c(Oc2ccc(OC)cc2)co1
152 to 154 °C	COC=C(C(=O)OC)N(C)c1ccnc(-c2ccccc2)n1
133 to 136 °C	COCOc1cc(Cl)ccc1-c1cc(-c2cccc(C(=O)NCC3CCCCN3C(=O)OC(C)(C)C)c2)c(C#N)c(NC(=O)c2ccco2)n1 (stereo not given)
118 to 120 °C	Clc1cc(Nc2cc(C3CC3)n[nH]2)nc(Sc2ccc3ccccc3c2)n1
148 to 150 °C	CCOC(=O)C(Cc1ccccc1)NC(=O)COc1ccc(C2=NNC(=O)NC2)cc1 (stereo not given)
128 to 129 °C	CC(=O)Oc1ccc2c(c1)CCC1C2CCC2(C)C(OC(C)=O)CCC12 (stereo not given)
153 to 154 °C	O=C(Nc1ccccc1)c1cccc([N+](=O)[O-])c1
273 °C	N#CC1=C(C2CCCCC2=O)Nc2n[nH]cc2C1c1cccc(C#N)c1Br (stereo not given)
138 to 140 °C	CCN(CC)CC1CCCCN1CCNC(=O)N1c2ccc(Cl)cc2C(=O)Nc2cccnc21 (stereo not given)
139 to 140 °C	CCC(C)NCC(O)COc1ccc2c(=O)c(-c3ccccc3)c(-c3ccccc3)oc2c1 (stereo not given)
200 to 202 °C	CC(C)n1nc(-c2cnc(Nc3ccccc3)nc2-c2ccccc2)ccc1=O
> 250 °C	NS(=O)(=O)c1cncc(-c2cn(-c3cc(C(F)(F)F)cc(-c4ccc(C(F)(F)F)cc4)n3)cn2)c1
206 to 207 °C	Cn1c(Br)nc2c1C(=O)N1CCN=C1N2Cc1ccc(Cl)cc1
